US20100210538A1, “THERAPEUTIC USES OF INTERMEDIN 47 AND 53 PEPTIDES” (priority 2007, published 2010)
Ends that are not written are not given here.

Tests used:
HCMV strain AD169 = assay: HCMV plaque formation assay in MRC-5 cells; conditions: for inhibition of HCMV plaque formation as compared to the virus control experiment: 10 micrograms per ml, 7-10 days
From the text: Cells were split twic a week 1:2.
Ganciclovir was used as positive control.

[1] = system: spleen cells of Ovalbumin-immunized Balb/c mice; assay: Th1/Th2 cytokine profiling assay (Mouse Th1/Th2 Cytokine CBA Kit); assay type: cell-based; conditions: 10 micrograms per ml; Ovalbumin restimulation, 72 hours
From the text: The Balb/c mice (originated in 1923, it is a popular strain and is used in many different research disciplines. Also classified as an inbred from the production of 20 or more successive brother-sister matings, the Balb/c mouse is albino and small in size) were immunized on Days 1, 15, and 29 with Ovalbumin (Ovalbumin is the main protein found in egg white, commonly used to stimulate an immunological reaction in test animals) in PBS (5 micrograms/injection). On day 50, spleens of the mice were harvested (3 weeks after last boost with Ovalbumin). Cells were cultured (2×10^5/well in triplicate) and incubated with culture medium or test peptides—10 micrograms per ml—for 30 min. Thereafter, additional Ovalbumin was added to the cells at 10 micrograms/ml for in vitro restimulation of the cells. 72 hours later, cell supernatants were harvested and assayed using the Becton Dickinson Mouse Th1/Th2 Cytokine CBA Kit.

[2] = system: Primary Human endothelial cells (HUVEC); assay: Endothelial cell migration assay; assay type: cell-based; conditions: 10 micrograms per ml, 22 hours
Procedure: Thereafter, designated concentration of testing peptides—10 micrograms per ml—was added in duplicate wells.

HUVEC = assay: Endothelial tube formation assay; assay type: cell-based, human; conditions: 10 micrograms per ml, 20 hours
From the text: Positive control was vehicle only. […] Raw data were expressed as average tubule lenghs in pixels±standard deviation.

RAW 264.7 cells = assay: Phagocytosis assay (Fluorescein-labeled Escherichia coli, flow cytometry); conditions: 10 micrograms per ml, Fluorescein-labeled E. coli, 60 min
[3] = system: hepatitis B virus (HBV) ayw strain; assay: HBV assay, secreted HBV DNA by TaqMan PCR in HepG2-2.2.15 cells; assay type: cell-based; conditions: 10 micrograms per ml, six days
Procedure: HepG2-2.2.15 is a stable cell line containing the hepatitis B virus (HBV) ayw strain genome (ATCC Cat. No. CRL-11997). […] After 16-24 hours the confluent monolayer of HepG2-2.2.15 cells was washed and the medium was replaced with complete medium containing test peptides-10 micrograms per ml—in duplicate. […] Three days later the culture medium was replaced with fresh medium containing the peptides. Six days following the initial administration of the peptides, the cell culture supernatants was collected, treated with pronase and DNAse and then used in a real-time quantitative TaqMan PCR assay. The PCR-amplified HBV DNA was detected in real-time by monitoring increases in fluorescence signals that result from the exonucleolytic degradation of a quenched fluorescence probe molecule that hybridizes to the mplified HBV DNA. For each PCR amplification, a standard curve was simultaneously generated using dilutions of purified HBV DNA. Antiviral activity was calculated from the reduction in HBV DNA levels (% virus control). A novel dye uptake assay was then employed to measure cell viability, which is used to calculate toxicity (% cell control).

Row | Molecule | antiviral activity of positive control compounds (HIV-1) (HIV-1IIIB) | IFNγ spleen cells; TH1 response (% of control) [1] | IL-2 spleen cells (% of control) [1] | IL-4 spleen cells; TH2 response (% of control) [1] | IL-5 spleen cells; TH2 response (% of control) [1] | TNF-a spleen cells; TH1 response (% of control) [1] | inhibition of the tube formation of human endothelial cells (HUVEC) [%] | inhibition of HCMV plaque formation as compared to the virus control experiment (HCMV strain AD169) [%] | induction of phagocytosis as compared to the control experiment (RAW 264.7 cells) | also measured
1 | Cc1cn([C@H]2C[C@H](N=[N+]=[N-])[C@@H](CO)O2)c(=O)[nH]c1=O [AZT] | expected levels of antiviral activity |  |  |  |  |  |  |  |  | 
2 | Nc1nc(O)c2ncn(COC(CO)CO)c2n1 [Ganciclovir, reference compound] |  |  |  |  |  |  |  |  |  | antiviral activity of positive control compound (HCMV) (HCMV strain AD169; positive control, HCMV AD169): expected levels of antiviral activity
3 | CC(C)(C)NC(=O)[C@@H]1CN(Cc2cccnc2)CCN1C[C@@H](O)C[C@@H](Cc1ccccc1)C(=O)N[C@H]1c2ccccc2C[C@H]1O [indinavir] | expected levels of antiviral activity |  |  |  |  |  |  |  |  | 
4 | His-Ser-Gly-Pro-Arg-Arg-Thr-Gln-Ala-Gln-Leu-Leu-Arg-Val-Gly-Cys-Val-Leu-Gly-Thr-Cys-Gln-Val-Gln-Asn-Leu-Ser-His-Arg-Leu-Trp-Gln-Leu-Met-Gly-Pro-Ala-Gly-Arg-Gln-Asp-Ser-Ala-Pro-Val-Asp-Pro-Ser-Ser-Pro-His-Ser-Tyr-NH2 (HSGPRRTQAQLLRVGCVLGTCQVQNLSHRLWQLMGPAGRQDSAPVDPSSPHSY-NH2; cysteine pairing not given here) [peptide 1] |  | 21.7 % of control | 75.6 % of control | 166.9 % of control | 34.5 % of control | 70.0 % of control | 19 | 1.8 | did not induce phagocytosis | inhibition of the migration of endothelial cells [2]: 8%
5 | Thr-Gln-Ala-Gln-Leu-Leu-Arg-Val-Gly-Cys-Val-Leu-Gly-Thr-Cys-Gln-Val-Gln-Asn-Leu-Ser-His-Arg-Leu-Trp-Gln-Leu-Met-Gly-Pro-Ala-Gly-Arg-Gln-Asp-Ser-Ala-Pro-Val-Asp-Pro-Ser-Ser-Pro-His-Ser-Tyr-NH2 [peptide 2] |  | 19.1 % of control | 98.9 % of control | 0.0 % of control | 17.9 % of control | 66.7 % of control | 12 | 0.7 | 34.3% | inhibition of HBV replication as compared to the virus control infection [3]: no effect; induction of the migration of human endothelial cells [2]: 19%
